Values after ≈ are worked out from the molar mass of the structure shown. Like-named read-outs stand apart in the source and are kept apart here.
Experiments:
M. morganii isolates = assay: microbe, parasite or virus in culture; assay type: cell-based; details: Morganella morganii
P. pennerii isolates = assay: organism not typed; assay type: cell-based, Proteus pennerii
[1] = assay type: in vivo, human
ethanol treated spores = assay type: cell-based; details: lysozyme addition to the plates (2 ug/ml); Sweet B or M2GSC media (FIG. 14)
[2] = 10 patients with recurrent C. difficile treated with ethanol treated spore preparations

Compound	% of Patients OTU Engrafts [1, 2] [%]	other results
C[C@@H](O)[C@H]1C(=O)N2C(C(=O)O)=C(SCCN=CN)C[C@H]12 [imipenem]	–	MIC (M. morganii isolates): 2 to 4 µg/mL (≈ 6.68 to 13.4 µM); MIC (P. pennerii isolates): 4 to 8 µg/mL (≈ 13.4 to 26.7 µM)
Bacteroides_fragilis	30	–
Clostridium_bartlettii	70	–
Clostridium_butyricum	–	% of Patients OTU Engrafts ([1]; human, in vivo): 20%
Clostridium_clostridioforme	60	–
Clostridium_disporicum	30	–
Clostridium_mayombei	50	–
Clostridium_symbiosum	50	–
lysozyme	–	effect on germination (ethanol treated spores): small effect

From patent publication US10064901B2, “Compositions and methods” (priority 2013, dated 2018)
